Measurements reported in PubChem BioAssay (NCI).
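96-well plates; 48 h exposure; 5 concentrations. Endpoints by linear interpolation between flanking doses. Not reached: highest tested concentration assigned. At the TGI there is no net growth.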

Columns and labels:
Experiment in all cases: inhibition of tumour cell growth, NCI panel, 48 h
[1] = test system: MDA-MB-435
[2] = test system: LOX IMVI melanoma
[3] = test system: OVCAR-4 ovarian
[4] = test system: UO-31 renal
[5] = test system: NCI/ADR-RES ovarian
[6] = test system: SF-268 CNS
[7] = test system: T-47D breast
[8] = test system: SNB-19 CNS
[9] = test system: RXF 393 renal
[10] = test system: OVCAR-5 ovarian
[11] = test system: IGROV1 ovarian
[12] = test system: SNB-75 CNS
[13] = test system: MDA-MB-231 breast
[14] = test system: ACHN renal
[15] = test system: MDA-N
[16] = test system: COLO 205 colon
[17] = test system: HS 578T breast
[18] = test system: EKVX NSCLC
[19] = test system: HT29 colon
[20] = test system: SK-MEL-28 melanoma
[21] = test system: NCI-H460 lung
[22] = test system: OVCAR-8 ovarian
[23] = test system: CAKI-1 renal
[24] = test system: CCRF-CEM leukemia
[25] = test system: MOLT-4 leukemia
[26] = test system: A549 NSCLC
[27] = test system: HL-60(TB) leukemia
[28] = test system: UACC-257 melanoma
[29] = test system: HCC-2998 colon
[30] = test system: 786-0 renal
[31] = test system: NCI-H226 lung
[32] = test system: MCF7 breast
[33] = test system: TK-10 renal
[34] = test system: KM12 colon
[35] = test system: UACC-62 melanoma
[36] = test system: M14 melanoma
[37] = test system: NCI-H23 lung
[38] = test system: U251 CNS
[39] = test system: SK-OV-3 ovarian
[40] = test system: BT-549 breast
[41] = test system: DU-145 prostate
[42] = test system: SK-MEL-2 melanoma
[43] = test system: SF-295 CNS
[44] = test system: SN12C renal
[45] = test system: PC-3 prostate
[46] = test system: HOP-92 NSCLC
[47] = test system: SW-620 colon
[48] = test system: SF-539 CNS
[49] = test system: HCT-116 colon
[50] = test system: HOP-62 NSCLC
[51] = test system: OVCAR-3 ovarian
[52] = test system: A498 renal
[53] = test system: HCT-15 colon
[54] = test system: MALME-3M melanoma
[55] = test system: NCI-H522 lung

## CCOC(=O)/C=C\c1c(Cl)n(-c2ccccc2)c(=O)n(-c2ccccc2)c1=O
[1]
  TGI: 44.8 µM
[2]
  TGI: 50.6 µM
[3]
  TGI: > 100 µM
[4]
  TGI: 33.2 µM
[5]
  TGI: 72.7 µM
[6]
  TGI: 44.7 µM
[7]
  TGI: 42.2 µM
[8]
  TGI: 31.6 µM
[9]
  TGI: 32.9 µM
[10]
  TGI: 36.9 µM
[11]
  TGI: 36.2 µM
[12]
  TGI: 29.2 µM
[13]
  TGI: 36.3 µM
[14]
  TGI: 35.1 µM
[15]
  TGI: 31.8 µM
[16]
  TGI: 34.6 µM
[17]
  TGI: 65.2 µM
[18]
  TGI: 48.5 µM
[19]
  TGI: 38.4 µM
[20]
  TGI: 41.1 µM
[21]
  TGI: 34.1 µM
[22]
  TGI: 34.7 µM
[23]
  TGI: 35.7 µM
[24]
  TGI: 58.7 µM
[25]
  TGI: 87.2 µM
[26]
  TGI: 60.1 µM
[27]
  TGI: 23.4 µM
[28]
  TGI: 35.5 µM
[29]
  TGI: 33.2 µM
[30]
  TGI: 39.6 µM
[31]
  TGI: 50.8 µM
[32]
  TGI: 46 µM
[33]
  TGI: 32.3 µM
[34]
  TGI: 35.8 µM
[35]
  TGI: 34.8 µM
[36]
  TGI: 33.7 µM
[37]
  TGI: 41.7 µM
[38]
  TGI: > 100 µM
[39]
  TGI: 37.2 µM
[40]
  TGI: 36.1 µM
[41]
  TGI: 34.9 µM
[42]
  TGI: 33.5 µM
[43]
  TGI: 40.2 µM
[44]
  TGI: 36.4 µM
[45]
  TGI: 33.3 µM
[46]
  TGI: 36 µM
[47]
  TGI: 61.6 µM
[48]
  TGI: 31.8 µM
[49]
  TGI: 54.9 µM
[50]
  TGI: 40 µM
[51]
  TGI: 36.1 µM
[52]
  TGI: 50.8 µM
[53]
  TGI: 39.7 µM
[54]
  TGI: 44 µM
[55]
  TGI: 46.5 µM
